Assay results taken from PMC4444998 (Journal of Natural Products, 2015).

What was measured:
Format in all cases: biochemical
Bovine trypsin = experiment: Trypsin inhibition assay (Bz-Arg-AMC, fluorimetry); conditions: for inhibition of trypsin protease activity: cyclotides kalata B1 or psysol 2 at 25 µM and 75 µM, respectively, triplicate
Protocol: (§1) Inhibitory activity was performed in triplicate in 96-well microtiter plates. Bovine trypsin (10 μL of a 10 ng/μL solution; Roche, Basel, Switzerland) or bovine α-chymotrypsin (10 μL of a 2.5 ng/μL solution; Sigma-Aldrich) was preincubated for 15 min at 37 °C with buffer (125 μL of a 20 mM Tris-HCl solution, pH 8.0) and with 3 μL of the cyclotide solution or ddH2O as negative control. After preincubation, trypsin substrate (Bz-Arg-AMC-HCl, 10 μL of a 3 mM solution prepared in 40% 1,4-dioxane; Bachem, Bubendorf, Switzerland) or chymotrypsin substrate (Ala-Ala-Phe-AMC, 10 μL of a 3 mM solution prepared in 40% 1,4-dioxane; Sigma-Aldrich), respectively, was added, and the reaction was incubated while shaking (90 rpm) for 1 h at 37 °C. The reaction was stopped with sodium acetate (150 μL, 1 M, pH 4), and the formation of AMC was measured by fluorimetry. The excitation and emission wavelengths were 360 ± 40 and 485 ± 20 nm, respectively. Phenylmethane-sulfonylfluoride (PMSF; 3 μL of a 5 mM solution in DMSO) was used as a positive control of inhibition; additional controls with DMSO solution only were also performed. Data were calculated as percentage of inhibition and are presented as mean ± STDEV (of three replicates).

bovine α-chymotrypsin = experiment: Chymotrypsin inhibition assay (Ala-Ala-Phe-AMC, fluorimetry); conditions: for inhibition of chymotrypsin activity: cyclotides at 25 µM and 75 µM, triplicate
Protocol: as §1

[1] = target: T1, human prolyl oligopeptidase (POP) (Homo sapiens, UniProt P48147); experiment: Prolyl oligopeptidase inhibition assay (Z-Gly-Pro-AMC, fluorimetry)
T1 construct: made in house
T1 sequence (P48147 1-710): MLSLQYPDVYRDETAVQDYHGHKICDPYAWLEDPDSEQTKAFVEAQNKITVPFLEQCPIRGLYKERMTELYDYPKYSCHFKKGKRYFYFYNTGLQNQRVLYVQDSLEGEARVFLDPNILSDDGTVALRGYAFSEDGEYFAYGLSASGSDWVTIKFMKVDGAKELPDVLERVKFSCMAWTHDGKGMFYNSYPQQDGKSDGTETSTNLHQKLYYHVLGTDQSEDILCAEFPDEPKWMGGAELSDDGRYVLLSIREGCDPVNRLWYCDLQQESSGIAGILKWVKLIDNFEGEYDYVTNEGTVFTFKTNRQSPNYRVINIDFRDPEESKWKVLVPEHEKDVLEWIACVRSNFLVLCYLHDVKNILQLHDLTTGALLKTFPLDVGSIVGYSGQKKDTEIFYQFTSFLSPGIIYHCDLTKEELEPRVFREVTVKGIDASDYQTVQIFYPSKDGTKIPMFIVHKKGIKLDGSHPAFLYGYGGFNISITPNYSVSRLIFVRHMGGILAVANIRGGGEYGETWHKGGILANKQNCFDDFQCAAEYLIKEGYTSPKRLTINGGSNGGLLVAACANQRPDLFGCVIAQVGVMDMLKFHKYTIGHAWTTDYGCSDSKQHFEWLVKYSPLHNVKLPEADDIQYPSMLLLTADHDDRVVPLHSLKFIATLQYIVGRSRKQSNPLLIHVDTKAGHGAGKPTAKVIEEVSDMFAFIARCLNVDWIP

| SMILES | inhibition of trypsin activity (positive control) (Bovine trypsin; 100 µM) | inhibition of chymotrypsin activity (positive control) (bovine α-chymotrypsin; 100 µM) | selectivity toward inhibition of POP over trypsin and chymotrypsin ([1]; POP IC50 compared with no inhibition of trypsin/chymotrypsin at 25 and 75 μM) | inhibition of trypsin protease activity (Bovine trypsin) | inhibition of chymotrypsin activity (bovine α-chymotrypsin) | IC50 ([1]; POP enzyme inhibition potency IC50, synthetic cyclotide, mean of three replicates) |
| --- | --- | --- | --- | --- | --- | --- |
| O=S(=O)(F)Cc1ccccc1 [PMSF, Phenylmethane-sulfonylfluoride] | able to inhibit | completel y blocked | – | – | – | – |
| CC(C)C[C@@H]1NC(=O)CNC(=O)[C@H](CC(N)=O)NC(=O)[C@H](CCCNC(=N)N)NC(=O)[C@H]([C@@H](C)O)NC(=O)[C@@H]2CSSC[C@@H]3NC(=O)[C@H]([C@@H](C)O)NC(=O)CNC(=O)CNC(=O)[C@H](C(C)C)NC(=O)[C@@H]4CSSC[C@H](NC(=O)[C@H]([C@@H](C)O)NC(=O)[C@H](CSSC[C@H](NC(=O)[C@H](C(C)C)NC(=O)[C@@H]5CCCN5C1=O)C(=O)NCC(=O)N[C@@H](CCC(=O)O)C(=O)N[C@@H]([C@@H](C)O)C(=O)N4)NC(=O)CNC(=O)[C@@H]1CCCN1C(=O)[C@H]([C@@H](C)O)NC(=O)[C@H](CC(N)=O)NC3=O)C(=O)N[C@@H](CO)C(=O)N[C@@H](Cc1c[nH]c3ccccc13)C(=O)N1CCC[C@H]1C(=O)N[C@@H](C(C)C)C(=O)N2 [kalata B1] | – | – | at least an order of magnitude more selective | not inhibited | had no effect | – |
| CC[C@H](C)[C@@H]1NC(=O)[C@@H]2CCCN2C(=O)[C@H](CC(C)C)NC(=O)CNC(=O)[C@H](CC(N)=O)NC(=O)[C@H](CCCNC(=N)N)NC(=O)[C@H]([C@@H](C)O)NC(=O)[C@@H]2CSSC[C@@H]3NC(=O)[C@H]([C@@H](C)O)NC(=O)CNC(=O)CNC(=O)[C@H](C(C)C)NC(=O)[C@@H]4CSSC[C@H](NC(=O)[C@H]([C@@H](C)O)NC(=O)[C@H](CSSC[C@H](NC1=O)C(=O)NCC(=O)N[C@@H](CCC(=O)O)C(=O)N[C@@H](CO)C(=O)N4)NC(=O)CNC(=O)[C@@H]1CCCN1C(=O)[C@H]([C@@H](C)O)NC(=O)[C@H](CC(N)=O)NC3=O)C(=O)N[C@@H]([C@@H](C)O)C(=O)N[C@@H](Cc1c[nH]c3ccccc13)C(=O)N1CCC[C@H]1C(=O)N[C@@H](C(C)C)C(=O)N2 [psysol 2 (1), psysol 2] | – | – | – | not inhibited | had no effect | 27.8 µM |
